Laboratory results published in patent US8609694B2, “Use of pyridin-2-yl-methylamine derivatives for the production of a medicament for the treatment of chronic pain symptoms of neuropathological or psychogenic origin” (Pierre Fabre Medicament, priority 2003, dated 2013).

Legend:
[1] = tested on: chronic hypersensitivity after spinal cord lesion (central neuropathy); assay: central neuropathy test in the rat (spinal cord lesion, vocalization threshold to von Frey hairs); format: in vivo; settings: fumarate of (Ia) 0.63 mg/rat/day
Experimental: The central neuropathy test used is conducted in the rat according to a method analogous to that described by Hao and Xu in Pain 1996, 66, 279-286. The product to be tested is delivered at a constant rate by means of an osmotic pump (Alzet, model 2ML2) for 14 days. The pumps are implanted 28 days after spinal cord lesion and then explanted at the treatment's end. In this model, it was established that at 28 days post-lesion the animal is in a phase of chronic hypersensitivity which then lasts for several months. In this experiment, the hypersensitivity of the lesioned animals treated with compound (Ia) or with saline solution was measured. The pain threshold was objectified by the animal's persistent vocalization in response to a stimulation of increasing intensity in the sensitive region by means of von Frey hairs. […] The fumarate of compound (Ia) is administered at 0.63 mg/rat/day. The pumps implanted in the group of lesioned control animals release a 0.9% NaCl solution (saline)/rat/day.
The stimulation sensitivity tests by means of von Frey hairs are conducted 3 days after implantation of the osmotic pump and continue regularly for 28 days. The doses refer to the weight of non-salified compound.
The effects obtained with compound (Ia) in comparison with those of the lesioned control animals that received saline solution are represented in FIG. 3 in the appendix.

[2] = tested on: hypersensitivity (allodynia) after unilateral ligature of the infraorbital nerve (peripheral neuropathy); assay: peripheral neuropathy test in the rat (unilateral ligature of the infraorbital nerve, von Frey hair response score 0-4); format: in vivo; settings: for amplitude of decrease of perceived pain intensity compared with baclofen: after nerve lesion of peripheral origin; for analgesic effect six days after the treatment's end (day 21): day 21, 6 days after pump explantation, same doses; for amplitude of analgesia 6 days after the treatment's end compared with amplitude at the treatment's end (day 15): day 21 versus day 15; for reduction of hypersensitivity (allodynia) to stimulation during treatment, versus saline: osmotic pump 14 days implanted 24 hours before lesion, (Ia) 0.63, (Ib) 0.16, morphine 5, baclofen 1.06 mg/rat/day, days 4-15
Experimental: The peripheral neuropathy test used was conducted in the rat according to a method analogous to that described by Vos in J. Neurosci. 1994, 14, 2708-2723. The product to be tested is delivered at a constant rate (0.12 ml/day) by means of an osmotic pump (Alzet, model 2ML2) for 14 days. The pumps are implanted 24 hours before lesion (unilateral ligature of the infraorbital nerve) and then explanted at the treatment's end. The pumps are implanted subcutaneously via a transverse incision made in the dorsal skin of the rat. Evaluation of the intensity of perceived pain is objectified from a series of behavioral signs observed in response to mechanical stimulation of the region lesioned by means of von Frey hairs. Stimulations are applied in order of increasing intensity. Intensity of perceived pain is evaluated from the following criteria: 0, no response by the animal; 1, detection (i.e., the rat turns its head towards the object used for stimulation); 2, withdrawal (i.e., the rat turns away or makes a withdrawal movement with its head to avoid the object used for stimulation); 3, flight or attack (i.e., the rat avoids the object by moving its body or deliberately attacks the object used for stimulation); 4, face rubbing (i.e., the rat rubs the area of stimulation three times in succession). The response level by the non-lesioned animals was 0 or 1.
The fumarate of compound (Ia) is administered at 0.63 mg/rat/day; the glycolate of compound (Ib) at 0.16 mg/rat/day; morphine hydrochloride at 5 mg/rat/day, and baclofen at 1.06 mg/rat/day. All the compounds are administered in solution in distilled water. The pumps implanted in the control animals release a 0.9% NaCl solution (saline)/rat/day; the doses refer to the weight of non-salified compound.
The effects obtained with compounds (Ia), (Ib), and the products chosen as references are represented in FIGS. 4 to 8 in the appendix. FIGS. 4 to 7 represent the analgesic effects of the various products evaluated at days 4, 6, 8, 11, and 13 of treatment and 1 day following explantation of the pump (day 15). FIG. 8 represents the analgesic effects of the various products measured at day 21, which is 6 days following the treatment's end.
The individual scores of each animal represent the average (±standard error) obtained after application of the von Frey hairs. The comparison of the results between the various groups as well as the progress of the values obtained over time are performed using an analysis of variance test (ANOVA), followed by a Dunnett's multiple comparison test.

[3] = tested on: hypersensitivity (allodynia) after unilateral ligature of the infraorbital nerve (peripheral neuropathy); settings: rat infraorbital nerve ligature model; cited from earlier work

Structure (SMILES)	analgesia after treatment is interrupted (curative phase) ([1]; after day 15, 14 days following pump explantation)	symptomatic analgesia (vocalization threshold to von Frey stimulation) during treatment, versus saline ([1]; osmotic pump 14 days implanted 28 days after spinal cord lesion)	amplitude of decrease of perceived pain intensity compared with baclofen [2]	analgesic effect six days after the treatment's end (day 21) [2]	amplitude of analgesia 6 days after the treatment's end compared with amplitude at the treatment's end (day 15) [2]	reduction of hypersensitivity (allodynia) to stimulation during treatment, versus saline [2]	activity in the peripheral neuropathy model as established previously [3]
Cc1ccc(CNCC2(F)CCN(C(=O)c3ccc(F)c(Cl)c3)CC2)nc1 [Compound (Ia)]	analgesia persists and is maintained at the same level as that attained at the treatment's end	statistically significant as of the tenth day of treatment	at least equivalent	continued to show a significant analgesic effect	not statistically different	significantly after day 11	–
CNc1nc(CNCC2(F)CCN(C(=O)c3ccc(F)c(Cl)c3)CC2)ccc1C [Compound (Ib)]	–	–	at least equivalent	continued to show a significant analgesic effect	not statistically different	significantly only after day 13	–
NCC(CC(=O)O)c1ccc(Cl)cc1 (stereo not drawn) [baclofen, reference compound]	–	–	–	disappeared completely	–	significant analgesic effect after day 11	agent with the highest activity
CN1CC[C@]23c4c5ccc(O)c4O[C@H]2[C@@H](O)C=C[C@H]3[C@H]1C5 [morphine, reference compound]	–	–	–	disappeared completely	–	inactive	–
